Patent publication US12428394B2, “2,4-disubstituted pyrimidine derivative, preparation method therefor and use thereof” (CHENGDU ZENITAR BIOMEDICAL TECHNOLOGY CO., LTD., priority 2019, dated 2025)
Like-named read-outs stand apart in the source and are kept apart here.

Assays:
[1] = tested on: MV4-11 cells (FLT3-ITD+/+); test: Inhibition of cell proliferation by MTT experiment, MV4-11; format: cell-based, human; conditions: MTT, 72 h, read-out: IC50 value on cell proliferation inhibition, MV4-11 FLT3-ITD+/+
Method in brief: (§1)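 MTT assay in MV4-11, MOLM-13 (FLT3-ITD) and SET-2 (JAK2 V617F) cells at 10,000–15,000 cells/well in IMDM with 10% FBS. Cells are exposed to compound for 72 h at 37 °C, then to MTT for 1–3 h. IC50 is fitted from inhibition rates across concentrations.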

[2] = tested on: MOLM-13 cells (FLT3-ITD-/+); test: Inhibition of cell proliferation by MTT experiment, MOLM-13; format: cell-based, human; conditions: MTT, 72 h, read-out: IC50 value on cell proliferation inhibition, MOLM-13 FLT3-ITD-/+
Method in brief: as §1

[3] = tested on: SET-2 cells (JAK2 V617F); test: Inhibition of cell proliferation by MTT experiment, SET-2; format: cell-based; conditions: MTT, 72 h, read-out: IC50 value on cell proliferation inhibition, SET-2 (V617F)
Method in brief: as §1

[4] = target: T1, FLT3 (Homo sapiens, UniProt P36888); test: In vitro kinase activity experiment, FLT3; format: biochemical; conditions: inhibition rate of enzyme at 500 nM, measured by Eurofins; for inhibition at 0.5 µM: 40 min, read-out: Kinase activity @ 500 nM (%) FLT3
T1 construct: purchased Eurofins
T1 sequence (P36888 27-993): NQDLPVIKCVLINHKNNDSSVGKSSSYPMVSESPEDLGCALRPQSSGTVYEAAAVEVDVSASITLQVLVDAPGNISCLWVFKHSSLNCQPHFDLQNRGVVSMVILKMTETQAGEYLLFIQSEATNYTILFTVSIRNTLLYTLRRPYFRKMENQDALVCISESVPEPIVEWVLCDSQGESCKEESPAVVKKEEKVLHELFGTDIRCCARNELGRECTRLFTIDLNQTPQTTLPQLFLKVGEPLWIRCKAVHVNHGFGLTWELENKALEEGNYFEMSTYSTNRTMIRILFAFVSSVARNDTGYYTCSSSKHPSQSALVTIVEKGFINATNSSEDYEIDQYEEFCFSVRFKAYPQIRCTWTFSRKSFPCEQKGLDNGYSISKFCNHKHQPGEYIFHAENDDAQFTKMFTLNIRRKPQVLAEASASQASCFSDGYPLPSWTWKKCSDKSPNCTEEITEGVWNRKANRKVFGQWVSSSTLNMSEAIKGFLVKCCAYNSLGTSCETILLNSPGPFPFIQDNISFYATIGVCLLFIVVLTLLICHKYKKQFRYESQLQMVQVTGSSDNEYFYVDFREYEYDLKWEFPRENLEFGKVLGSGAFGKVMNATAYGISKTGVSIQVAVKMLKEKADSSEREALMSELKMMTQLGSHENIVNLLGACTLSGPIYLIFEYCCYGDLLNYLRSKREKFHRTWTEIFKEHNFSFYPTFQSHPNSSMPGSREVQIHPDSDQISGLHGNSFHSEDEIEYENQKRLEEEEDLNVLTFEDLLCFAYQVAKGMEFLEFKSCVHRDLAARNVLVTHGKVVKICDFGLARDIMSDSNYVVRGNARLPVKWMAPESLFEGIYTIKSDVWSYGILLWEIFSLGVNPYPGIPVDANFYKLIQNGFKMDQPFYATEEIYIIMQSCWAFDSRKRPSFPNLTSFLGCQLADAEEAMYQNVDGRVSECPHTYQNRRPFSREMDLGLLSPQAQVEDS
Method in brief: (§2)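 Radiometric filter-binding assay: kinase, its substrate and compound in 8 mM MOPS pH 7.0, 0.2 mM EDTA, 10 mM MnCl2, with 10 mM magnesium acetate and γ33P-ATP; MgATP started the reaction, 40 min at room temperature. Stopped with 3% phosphate, spotted on Filtermat A, washed, scintillation counted.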

[5] = target: T2, JAK2 (Homo sapiens, UniProt O60674); test: In vitro kinase activity experiment, JAK2; format: biochemical; conditions: inhibition rate of enzyme at 500 nM; measured by Eurofins
T2 construct: purchased Eurofins
Method in brief: as §2

T2 sequence (O60674 whole entry): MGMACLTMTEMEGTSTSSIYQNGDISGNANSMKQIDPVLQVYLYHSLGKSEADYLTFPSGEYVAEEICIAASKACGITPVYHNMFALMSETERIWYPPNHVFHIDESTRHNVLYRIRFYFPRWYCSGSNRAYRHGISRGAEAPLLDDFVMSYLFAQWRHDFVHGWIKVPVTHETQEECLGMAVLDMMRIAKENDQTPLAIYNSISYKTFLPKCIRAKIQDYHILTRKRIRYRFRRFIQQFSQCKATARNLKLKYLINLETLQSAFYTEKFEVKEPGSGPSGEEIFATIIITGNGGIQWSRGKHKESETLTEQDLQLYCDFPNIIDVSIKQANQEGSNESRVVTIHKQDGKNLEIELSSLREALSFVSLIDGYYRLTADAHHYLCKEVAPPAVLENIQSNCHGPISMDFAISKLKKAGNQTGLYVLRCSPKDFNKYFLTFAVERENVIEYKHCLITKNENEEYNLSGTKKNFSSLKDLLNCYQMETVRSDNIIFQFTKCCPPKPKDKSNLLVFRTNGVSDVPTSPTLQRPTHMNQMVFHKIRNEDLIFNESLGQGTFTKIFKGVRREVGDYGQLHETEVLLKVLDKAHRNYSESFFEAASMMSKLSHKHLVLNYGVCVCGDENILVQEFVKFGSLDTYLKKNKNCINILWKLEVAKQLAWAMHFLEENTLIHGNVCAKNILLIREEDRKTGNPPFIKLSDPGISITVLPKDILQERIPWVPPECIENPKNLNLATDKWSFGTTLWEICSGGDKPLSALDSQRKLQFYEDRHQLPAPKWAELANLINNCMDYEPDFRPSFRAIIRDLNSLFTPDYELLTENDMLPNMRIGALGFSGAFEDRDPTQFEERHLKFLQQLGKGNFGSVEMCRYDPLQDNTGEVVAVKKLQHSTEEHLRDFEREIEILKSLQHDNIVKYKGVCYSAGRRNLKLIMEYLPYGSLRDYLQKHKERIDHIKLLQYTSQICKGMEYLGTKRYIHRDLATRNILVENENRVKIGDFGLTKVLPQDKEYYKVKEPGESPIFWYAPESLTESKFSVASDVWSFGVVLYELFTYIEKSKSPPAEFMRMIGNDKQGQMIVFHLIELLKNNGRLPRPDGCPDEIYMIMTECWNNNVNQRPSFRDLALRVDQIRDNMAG

CCCC(O)CN1CC2(CCN(c3ccc(Nc4ncc(C)c(-c5cnn(C(C)C)c5)n4)cc3F)CC2)C1 (stereo not drawn) [CLJ-70, N-(3-fluoro-4-(2,7-diazaspiro [3.5]nonane-2-hydroxypentyl-7-yl)phenyl)-4-(1-isopropyl-1H-pyrazol-4-yl)-5-methylpyrimidine-2-amine]
IC50 [1]: 10 to 100 nM
IC50 [2]: 10 to 100 nM
IC50 [3]: 100 to 1000 nM
Kinase activity @ 500 nM (%) FLT3 [4]: 91%
Kinase activity @ 500 nM (%) JAK2 [5]: 90%

CCN1CC2(CCN(c3ccc(Nc4ncc(C)c(-c5cnn(C(C)C)c5)n4)cc3F)CC2)C1 [CLJ-71, N-(3-fluoro-4-(2,7-diazaspiro [3.5]nonane-2-ethyl-7-yl)phenyl)-4-(1-isopropyl-1H-pyrazole-4-yl)-5-methylpyrimidine-2-amine]
IC50 ([1]; Homo sapiens, MV4-11): 1 to 10 nM
IC50 ([2]; Homo sapiens, MOLM-13): 10 to 100 nM
IC50 ([3]; Homo sapiens, SET-2): 100 to 1000 nM
inhibition at 0.5 µM [4]: 93%
Kinase activity @ 500 nM (%) JAK2 [5]: 91%

CCCN1CC2(CCN(c3ccc(Nc4ncc(C)c(-c5cnn(C(C)C)c5)n4)cc3F)CC2)C1 [CLJ-72, N-(3-fluoro-4-(2,7-diazaspiro [3.5]nonane-2-propyl-7-yl)phenyl)-4-(1-isopropyl-1H-pyrazole-4-yl)-5-methylpyrimidine-2-amine]
IC50 ([1]; Homo sapiens, MV4-11): 10 to 100 nM
IC50 ([2]; Homo sapiens, MOLM-13): 10 to 100 nM
IC50 ([3]; Homo sapiens, SET-2): 100 to 1000 nM
inhibition at 0.5 µM [4]: 92%
Kinase activity @ 500 nM (%) JAK2 [5]: 92%

CCCCN1CC2(CCN(c3ccc(Nc4ncc(C)c(-c5cnn(C(C)C)c5)n4)cc3F)CC2)C1 [CLJ-73, N-(3-fluoro-4-(2,7-diazaspiro [3.5]nonane-2-butyl-7-yl)phenyl)-4-(1-isopropyl-1H-pyrazole-4-yl)-5-methylpyrimidine-2-amine]
IC50 ([1]; Homo sapiens, MV4-11): 100 to 1000 nM
IC50 ([2]; Homo sapiens, MOLM-13): 100 to 1000 nM
IC50 ([3]; Homo sapiens, SET-2): 100 to 1000 nM
inhibition at 0.5 µM [4]: 97%
Kinase activity @ 500 nM (%) JAK2 [5]: 91%

CCCCCCN1CC2(CCN(c3ccc(Nc4ncc(C)c(-c5cnn(C(C)C)c5)n4)cc3F)CC2)C1 [CLJ-74, N-(3-fluoro-4-(2,7-diazaspiro [3.5]nonane-2-hexyl-7-yl)phenyl)-4-(1-isopropyl-1H-pyrazole-4-yl)-5-methylpyrimidine-2-amine]
IC50 ([1]; Homo sapiens, MV4-11): 10 to 100 nM
IC50 ([2]; Homo sapiens, MOLM-13): 10 to 100 nM
IC50 ([3]; Homo sapiens, SET-2): 10 to 100 nM
inhibition at 0.5 µM [4]: 97%
Kinase activity @ 500 nM (%) JAK2 [5]: 98%

Cc1cnc(Nc2ccc(N3CCC4(CC3)CN(C(C)C)C4)c(F)c2)nc1-c1cnn(C(C)C)c1 [CLJ-75, N-(3-fluoro-4-(2,7-diazaspiro [3.5]nonane-2-isopropyl-7-yl)phenyl)-4-(1-isopropyl-1H-pyrazole-4-yl)-5-methylpyrimidine-2-amine]
IC50 ([1]; Homo sapiens, MV4-11): 1 to 10 nM
IC50 ([2]; Homo sapiens, MOLM-13): 1 to 10 nM
IC50 ([3]; Homo sapiens, SET-2): 10 to 100 nM
inhibition at 0.5 µM [4]: 99%
Kinase activity @ 500 nM (%) JAK2 [5]: 96%

Cc1cnc(Nc2ccc(N3CCC4(CC3)CN(C3CCCC3)C4)c(F)c2)nc1-c1cnn(C(C)C)c1 [CLJ-76, N-(3-fluoro-4-(2,7-diazaspiro [3.5]nonane-2-cyclopentyl-7-yl)phenyl)-4-(1-isopropyl-1H-pyrazole-4-yl)-5-methylpyrimidine-2-amine]
IC50 ([1]; Homo sapiens, MV4-11): 100 to 1000 nM
IC50 ([2]; Homo sapiens, MOLM-13): 100 to 1000 nM
IC50 ([3]; Homo sapiens, SET-2): 100 to 1000 nM
inhibition at 0.5 µM [4]: 67%
Kinase activity @ 500 nM (%) JAK2 [5]: 59%

C=CC(=O)CCN1CC2(CCN(c3ccc(Nc4ncc(C)c(-c5cnn(C(C)C)c5)n4)cc3F)CC2)C1 [CLJ-77, 1-(7-(2-fluoro-4-((4-(1-isopropyl-1H-pyrazole-4-yl)-5-methylpyrimidine-2-yl)-amino)-phenyl)-2,7-diazaspiro [3.5]nonane-2-yl)-4-pentenamide]
IC50 ([1]; Homo sapiens, MV4-11): 100 to 1000 nM
IC50 ([2]; Homo sapiens, MOLM-13): 100 to 1000 nM
IC50 ([3]; Homo sapiens, SET-2): 100 to 1000 nM
inhibition at 0.5 µM [4]: 55%
Kinase activity @ 500 nM (%) JAK2 [5]: 54%

Cc1cnc(Nc2ccc(CNC(=O)/C=C/CN(C)C)cc2)nc1-c1cnn(C(C)C)c1 [CLJ-79, (E)-N-(4-((4-(1-isopropyl-1H-pyrazole-4-yl)-5-methylpyrimidine-2-yl)amino)benzyl)-4-dimethylamino-2-butenamide]
IC50 ([1]; Homo sapiens, MV4-11): 100 to 1000 nM
IC50 ([2]; Homo sapiens, MOLM-13): 100 to 1000 nM
IC50 ([3]; Homo sapiens, SET-2): 100 to 1000 nM
inhibition at 0.5 µM [4]: 45%
Kinase activity @ 500 nM (%) JAK2 [5]: 44%

Cc1cnc(Nc2ccc(CCNC(=O)/C=C/CN(C)C)cc2)nc1-c1cnn(C(C)C)c1 [CLJ-80, (E)-N-(4-((4-(1-isopropyl-1H-pyrazole-4-yl)-5-methylpyrimidine-2-yl)amino)phenylethyl)-4-dimethylamino-2-butenamide]
IC50 ([1]; Homo sapiens, MV4-11): 100 to 1000 nM
IC50 ([2]; Homo sapiens, MOLM-13): > 1000 nM
IC50 ([3]; Homo sapiens, SET-2): > 1000 nM
inhibition at 0.5 µM [4]: 23%
Kinase activity @ 500 nM (%) JAK2 [5]: 34%

Cc1cnc(Nc2ccc(CNC(=O)/C=C/C(=O)c3ccccc3)cc2)nc1-c1cnn(C(C)C)c1 [CLJ-81, N-(4-((4-(1-isopropyl-1H-pyrazole-4-yl)-5-methylpyrimidine-2-yl)amino)benzyl)-3-benzoyl acrylamide]
IC50 ([1]; Homo sapiens, MV4-11): > 1000 nM
IC50 ([2]; Homo sapiens, MOLM-13): > 1000 nM
IC50 ([3]; Homo sapiens, SET-2): > 1000 nM
inhibition at 0.5 µM [4]: 22%
Kinase activity @ 500 nM (%) JAK2 [5]: 34%

Cc1cnc(Nc2ccc(CCNC(=O)/C=C/C(=O)c3ccccc3)cc2)nc1-c1cnn(C(C)C)c1 [CLJ-82, N-(4-((4-(1-isopropyl-1H-pyrazole-4-yl)-5-methylpyrimidine-2-yl)amino)phenethyl)-3-benzoyl acrylamide]
IC50 ([1]; Homo sapiens, MV4-11): > 1000 nM
IC50 ([2]; Homo sapiens, MOLM-13): > 1000 nM
IC50 ([3]; Homo sapiens, SET-2): > 1000 nM
inhibition at 0.5 µM [4]: 12%
Kinase activity @ 500 nM (%) JAK2 [5]: 20%

Cc1cnc(Nc2ccc(CNC(=O)CCCN(C)C)cc2)nc1-c1cnn(C(C)C)c1 [CLJ-83, N-(4-((4-(1-isopropyl-1H-pyrazole-4-yl)-5-methylpyrimidine-2-yl)amino)benzyl)-4-dimethylaminobutyramide]
IC50 ([1]; Homo sapiens, MV4-11): 10 to 100 nM
IC50 ([2]; Homo sapiens, MOLM-13): 10 to 100 nM
IC50 ([3]; Homo sapiens, SET-2): 100 to 1000 nM
inhibition at 0.5 µM [4]: 89%
Kinase activity @ 500 nM (%) JAK2 [5]: 88%

Cc1cnc(Nc2ccc(CCNC(=O)CCCN(C)C)cc2)nc1-c1cnn(C(C)C)c1 [CLJ-84, N-(4-((4-(1-isopropyl-1H-pyrazole-4-yl)-5-methylpyrimidine-2-yl)amino)phenethyl)-4-dimethylaminobutyramide]
IC50 ([1]; Homo sapiens, MV4-11): 100 to 1000 nM
IC50 ([2]; Homo sapiens, MOLM-13): 100 to 1000 nM
IC50 ([3]; Homo sapiens, SET-2): 100 to 1000 nM
inhibition at 0.5 µM [4]: 78%
Kinase activity @ 500 nM (%) JAK2 [5]: 79%

Cc1cnc(Nc2ccc(CNC(=O)CCl)cc2)nc1-c1cnn(C(C)C)c1 [CLJ-85, N-(4-((4-(1-isopropyl-1H-pyrazole-4-yl)-5-methylpyrimidine-2-yl)amino)benzyl)-2-chloroacetamide]
IC50 ([1]; Homo sapiens, MV4-11): 100 to 1000 nM
IC50 ([2]; Homo sapiens, MOLM-13): > 1000 nM
IC50 ([3]; Homo sapiens, SET-2): > 1000 nM
inhibition at 0.5 µM [4]: 67%
Kinase activity @ 500 nM (%) JAK2 [5]: 56%
